Results on nine compounds are retold here after PubChem BioAssay (NCI).

Structures are written as SMILES.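 Briefly, cells in 96-well plates were exposed to five compound concentrations for 48 h, and endpoints were estimated by linear interpolation. Abbreviation: GI50, concentration required for 50% inhibition of growth. Definition used: TGI = concentration required for complete inhibition of growth.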

Among the test systems are A549 NSCLC; ACHN renal; CAKI-1 renal; EKVX NSCLC; HS 578T breast; KM12 colon; SNB-19 CNS; SW-620 colon.
What all share (assay): NCI-60 cell line screen, 48 h

Consider `ClCC#CCSc1ncnc2c1ncn2CC#CCCl`, for which the GI50 was 1.76 µM with A549 NSCLC; 1.98 µM in the assay on ACHN renal; 1.15 µM in the assay with CAKI-1 renal; 1.9 µM in the assay on EKVX NSCLC; 2.41 µM in the assay on HS 578T breast; 1.39 µM in the assay with KM12 colon. Moreover, the GI50 in the assay with SNB-19 CNS is 1.64 µM; in the assay with SW-620 colon, 2.17 µM. Also, the TGI in the assay with A549 NSCLC came to 4.35 µM; with ACHN renal, 5.5 µM; in the assay with CAKI-1 renal, 3.74 µM; in the assay on EKVX NSCLC it was 4.2 µM; in the assay with HS 578T breast, 9.8 µM; in the assay with KM12 colon, 2.8 µM. Besides, the TGI is 3.61 µM in the assay on SNB-19 CNS and 4.79 µM in the assay with SW-620 colon.
For `CCOC(=O)c1ccccc1-c1c2ccc(=[N+](C)C)cc-2oc2cc(N(C)C)ccc12`, the GI50 in the assay on A549 NSCLC is 0.256 µM; with ACHN renal it was 1.28 µM; with CAKI-1 renal it was 0.691 µM; with EKVX NSCLC, 0.129 µM; in the assay with HS 578T breast, 0.548 µM; with KM12 colon, 0.196 µM. The GI50 is 0.103 µM with SNB-19 CNS and 0.261 µM in the assay on SW-620 colon. Further, the TGI is over 38.7 µM in the assay with A549 NSCLC; 8.1 µM in the assay on ACHN renal; 4.64 µM in the assay with CAKI-1 renal; over 38.9 µM with EKVX NSCLC; 51.2 µM in the assay with HS 578T breast; 10.9 µM in the assay on KM12 colon. For the same compound, the TGI in the assay with SNB-19 CNS worked out at 16.7 µM; with SW-620 colon, 17.4 µM.
For the compound `COc1ccc(-c2c(N)n[nH]c2-c2cc(OC)c(OC)c(OC)c2)cc1`, the GI50 in the assay on A549 NSCLC was 0.147 µM; with ACHN renal, 2.03 µM; in the assay on CAKI-1 renal, 0.381 µM; with EKVX NSCLC it was 3.86 µM; with HS 578T breast, 0.0782 µM; in the assay on KM12 colon, 0.0594 µM. Moreover, the GI50 with SNB-19 CNS was 0.403 µM; in the assay with SW-620 colon, 0.0587 µM. In addition, the TGI in the assay with A549 NSCLC is over 100 µM; in the assay on ACHN renal, over 100 µM; with CAKI-1 renal, over 100 µM; in the assay on EKVX NSCLC it was over 100 µM; with HS 578T breast it was 0.593 µM; in the assay on KM12 colon, 18 µM. In addition, the TGI in the assay with SNB-19 CNS and in the assay on SW-620 colon was over 100 µM throughout.
`O=C(Nc1ccc(I)cc1F)c1cc(I)ccc1O`: the GI50 was 1.15 µM with A549 NSCLC; 1.69 µM with ACHN renal; 0.492 µM in the assay with CAKI-1 renal; 0.737 µM in the assay with EKVX NSCLC; 0.617 µM with HS 578T breast; 1.01 µM in the assay with KM12 colon. Moreover, the values for the GI50 in the assay on SNB-19 CNS and in the assay on SW-620 colon were 0.664 µM and 0.866 µM, respectively. Besides, the TGI was over 100 µM in the assay with A549 NSCLC; over 100 µM with ACHN renal; 4.11 µM in the assay on CAKI-1 renal; 7.17 µM in the assay on EKVX NSCLC; 3.95 µM in the assay with HS 578T breast; 3.85 µM in the assay on KM12 colon. Moreover, the figures for the TGI with SNB-19 CNS and with SW-620 colon were over 100 µM and over 36 µM, respectively.
Consider `CCc1nc(-n2c(-c3ccccc3)nc3ccccc3c2=O)nc(N)c1-c1ccc(Cl)cc1`, for which the GI50 with A549 NSCLC is 4.98 µM; in the assay with ACHN renal it was 5.53 µM; in the assay on CAKI-1 renal it was 14.7 µM; in the assay with EKVX NSCLC, over 100 µM; with HS 578T breast, 34.8 µM; with KM12 colon it was 26.6 µM. In addition, the GI50 with SNB-19 CNS was 6.46 µM; in the assay with SW-620 colon it was 4.64 µM. Further, the TGI is over 100 µM in the assay on A549 NSCLC; over 100 µM with ACHN renal; 41 µM in the assay with CAKI-1 renal; over 100 µM in the assay with EKVX NSCLC; over 100 µM in the assay with HS 578T breast; over 100 µM in the assay on KM12 colon. For the same compound, the TGI in the assay with SNB-19 CNS and with SW-620 colon was over 100 µM each time.
For the compound `CN1CCN(CCOc2ccc(-c3cnc4c(-c5ccc(F)cc5)cnn4c3)cc2)CC1`, the GI50 with A549 NSCLC was 1.71 µM; in the assay on ACHN renal, 1.42 µM; in the assay with CAKI-1 renal, 1.52 µM; in the assay on EKVX NSCLC, 1.79 µM; in the assay with HS 578T breast, 1.49 µM; in the assay with KM12 colon, 1.06 µM. Further, the GI50 in the assay on SNB-19 CNS is 1.66 µM; with SW-620 colon, 1.89 µM. Also, the TGI in the assay on A549 NSCLC amounted to 3.45 µM; in the assay on ACHN renal, 2.73 µM; in the assay with CAKI-1 renal, 2.89 µM; with EKVX NSCLC it was 3.55 µM; in the assay with HS 578T breast it was 4.53 µM; in the assay with KM12 colon it was 2.36 µM. Also, the TGI is 3.39 µM in the assay with SNB-19 CNS and 3.56 µM with SW-620 colon.
As for `CCOc1cc(C(C)(C)C)ccc1C1=N[C@@](C)(c2ccc(Cl)cc2)[C@@](C)(c2ccc(Cl)cc2)N1C(=O)N1CCN(CCS(C)(=O)=O)CC1`, the GI50 in the assay on A549 NSCLC was 0.975 µM; with ACHN renal it was 0.45 µM; with CAKI-1 renal it was 0.81 µM; in the assay with HS 578T breast it was 4.1 µM; in the assay with KM12 colon, 3.33 µM; with SNB-19 CNS, 4.4 µM. Besides, the GI50 with SW-620 colon is 5.03 µM. The TGI is 5.31 µM with A549 NSCLC; 2.56 µM in the assay on ACHN renal; 6.48 µM in the assay with CAKI-1 renal; 23.9 µM with HS 578T breast; 11.4 µM in the assay with KM12 colon; 23.2 µM in the assay on SNB-19 CNS. The TGI in the assay on SW-620 colon came out at 20.5 µM.
In the case of `N#Cc1cccc(OCc2ccccc2COc2cccc(C#N)c2)c1`, the GI50 is 42.5 µM with A549 NSCLC; 27.2 µM in the assay with ACHN renal; 11.1 µM in the assay on CAKI-1 renal; 28.3 µM in the assay with EKVX NSCLC; 30.9 µM in the assay on HS 578T breast; over 100 µM in the assay on SNB-19 CNS. Besides, the GI50 in the assay with SW-620 colon is over 100 µM. The TGI with A549 NSCLC was over 100 µM; with ACHN renal it was 86.3 µM; in the assay on CAKI-1 renal, 25.1 µM; in the assay with EKVX NSCLC, 69.2 µM; with HS 578T breast, 70.5 µM; with SNB-19 CNS, over 100 µM. The same compound gave a TGI in the assay on SW-620 colon of over 100 µM.
As to `CC(C)(C)C(=O)OCc1nc2cc3c(cc2c(=O)[nH]1)CCC3=O`, the GI50 in the assay with A549 NSCLC, with ACHN renal, with CAKI-1 renal, with HS 578T breast, in the assay with KM12 colon and in the assay with SNB-19 CNS was over 100 µM in each case. Further, the GI50 in the assay with SW-620 colon was over 100 µM. Further, the TGI in the assay on A549 NSCLC, in the assay on ACHN renal, in the assay with CAKI-1 renal, with HS 578T breast, in the assay on KM12 colon and with SNB-19 CNS was over 100 µM each time. Also, the TGI in the assay on SW-620 colon was over 100 µM.
